Several values for one entry are separate records, joined by “and”; a condition that tells them apart may be missing. Equal entries are not always repeated.
What was measured:
[1] = clinical; conditions: human, in vivo
[2] = human, in vivo
[3] = clinical; conditions: human, in vivo; remark: listed apart in the source
[4] = tested on: Pgp; experiment: Permeability in Caco-2 barrier model; conditions: human
Experimental: (§1) Digoxin was used as marker to check for Pgp activity in the cultures. […] Samples were recovered from receptor compartments after 0, 15, 30, 45, 60, and 120 minutes, and further analyzed by liquid scintillation counting. Samples were also recovered a time 0 and 120 minutes from the donor compartments for mass balance evaluation. Each condition was performed in 3 replicated transwell filters in the presence of the Caco-2 barrier.

[5] = tested on: P-gp; experiment: Permeability in Caco-2 barrier model; conditions: human
Experimental: as §1

[6] = target: Pgp (Homo sapiens, UniProt P08183); conditions: PX811019 0.2 mM applied basolaterally
[7] = tested on: urinary copper excretion; conditions: in vivo, po
[8] = population mean (% CV in table)

Chain of Pgp (Homo sapiens, UniProt P08183) (P08183 whole entry): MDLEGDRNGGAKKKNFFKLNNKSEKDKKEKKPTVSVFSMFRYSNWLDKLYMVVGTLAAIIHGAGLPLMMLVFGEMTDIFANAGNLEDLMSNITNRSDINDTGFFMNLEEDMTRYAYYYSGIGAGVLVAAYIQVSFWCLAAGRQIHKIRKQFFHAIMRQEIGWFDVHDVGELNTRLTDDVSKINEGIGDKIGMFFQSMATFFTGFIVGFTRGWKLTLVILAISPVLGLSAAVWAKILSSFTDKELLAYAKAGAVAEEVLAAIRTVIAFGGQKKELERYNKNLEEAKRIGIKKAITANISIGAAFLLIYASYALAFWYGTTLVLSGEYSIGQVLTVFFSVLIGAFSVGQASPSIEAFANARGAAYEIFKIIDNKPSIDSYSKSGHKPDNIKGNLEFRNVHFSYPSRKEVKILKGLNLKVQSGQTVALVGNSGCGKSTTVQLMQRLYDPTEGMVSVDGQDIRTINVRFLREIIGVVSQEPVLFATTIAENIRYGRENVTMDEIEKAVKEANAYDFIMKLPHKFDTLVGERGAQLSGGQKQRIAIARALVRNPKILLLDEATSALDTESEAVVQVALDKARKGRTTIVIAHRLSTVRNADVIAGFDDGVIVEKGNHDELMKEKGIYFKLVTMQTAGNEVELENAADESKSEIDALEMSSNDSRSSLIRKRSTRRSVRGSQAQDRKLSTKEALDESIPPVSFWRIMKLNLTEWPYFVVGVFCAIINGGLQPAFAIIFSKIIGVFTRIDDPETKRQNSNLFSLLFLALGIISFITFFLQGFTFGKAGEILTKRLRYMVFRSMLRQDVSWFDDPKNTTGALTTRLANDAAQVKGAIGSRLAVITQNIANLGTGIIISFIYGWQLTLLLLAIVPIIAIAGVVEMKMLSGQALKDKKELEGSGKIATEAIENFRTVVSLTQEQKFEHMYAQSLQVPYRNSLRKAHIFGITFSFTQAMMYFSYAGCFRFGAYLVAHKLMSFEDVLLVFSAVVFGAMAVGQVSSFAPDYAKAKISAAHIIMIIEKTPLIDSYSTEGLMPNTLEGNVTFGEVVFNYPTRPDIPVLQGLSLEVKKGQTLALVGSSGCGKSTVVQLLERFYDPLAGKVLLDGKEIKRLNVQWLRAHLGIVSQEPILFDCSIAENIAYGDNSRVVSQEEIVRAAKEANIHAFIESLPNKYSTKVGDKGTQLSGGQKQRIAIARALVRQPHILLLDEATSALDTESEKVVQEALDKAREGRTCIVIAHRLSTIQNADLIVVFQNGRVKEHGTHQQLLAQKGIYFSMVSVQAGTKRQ

CC(=O)NCCNCCNCCNC(C)=O [DAT, N1,N10-diacetyltriethylenetetramine]
CL/F [1]: 5100 mL/min | Cmax of DAT relative to MAT [2]: 3-4 fold lower | Inter-individual variability of CLD/F/frM/frD (estimate (% CV in table)): 55.9% and 55.9 (18.1) [1.5] % | Inter-individual variability of VP,D/F/frM/frD (estimate (% CV in table)): 86.8% and 86.8 (29.4) [2.7] % | Apparent volume for DAT, VP,D/F/frM/frD [8]: 197 L and 197 (17.7) L | Tmax [3]: 5 to 6 h

C[C@H]1O[C@@H](O[C@H]2[C@@H](O)C[C@H](O[C@H]3[C@@H](O)C[C@H](O[C@H]4CC[C@@]5(C)[C@H](CC[C@@H]6[C@@H]5C[C@@H](O)[C@]5(C)[C@@H](C7=CC(=O)OC7)CC[C@]65O)C4)O[C@@H]3C)O[C@@H]2C)C[C@H](O)[C@@H]1O [Digoxin]
Papp B→A [4]: 6.08 ×10⁻⁶ cm/s | efflux ratio [5]: 8.06 | Papp B-A of Digoxin in presence of PX811019 [6]: 5.68±3.03×10^−6 cm/s

NCCNCCNCCN [TETA, triethylenetetramine]
CL/F [1]: 2350 mL/min | Increase of model predicted VT,T/F for every 100 mg difference from the 750 mg dose (human, in vivo): 6.37% | Inter-individual variability of SL · ER0 (in vivo): 58.1% and 58.1 (25.1) [7.8] % | Slope (SL) of copper excretion versus TETA concentration (in vivo): 41.8 (mg/L)^−1

CC(=O)NCCNCCNCCN [MAT, N1-acetyltriethylenetetramine]
CL/F [1]: 1270 mL/min | Inter-individual variability of CLM/F/frM (estimate (% CV in table)): 41.5% and 41.5 (15.1) [2.9] % | Inter-individual variability of VP,M/F/frM (estimate (% CV in table)): 55.1% and 55.1 (17.4) [2.7] % | Apparent volume for MAT, VP,M/F/frM [8]: 426 L and 426 (9.8) L | Mean transit time for MAT formation [8]: 0.381 h and 0.381 (34.2) h

NCCNCCNCCN.O=C(O)CCC(=O)O.O=C(O)CCC(=O)O [PX811019, triethylenetetramine disuccinate]
Level of cupriuresis versus dose [7]: approximately the same at 435 and 1305 mg PX811019 and increased at the highest dose of 2175 mg | Tmax [3]: 1.25 to 2 h
